Measured values: patent US6790958B2, “Purine inhibitors of cyclin dependent kinase 2 & IKBA” (priority 1996, dated 2004)
≈ marks a conversion by molar mass, not a printed value.

Columns and labels:
CDK2 = CDK2 (Homo sapiens, UniProt P24941); test: CDK2 assay (histone H1 phosphorylation, 32P-ATP filter assay); format: biochemical; conditions: concentration required to inhibit CDK2 activity by 50%; histone H1, 30 μM ATP, 30° C., 30 min; read-out: IC50 (μg/mL) enzyme (converted)
Protocol: Compositions of this invention were assayed to determine their CDK2 inhibitory activity. The assay system (total volume of 50 μl) contained 50 mM Tris-Cl, pH 7.4, 10 mMgCl2, 5 mM DTT, 1 μg of histone H1, 30 μM ATP (1 μCi of gamma ^32P labeled ATP?), 10 μg of BSA and 1 μg of purified CDK2. After incubation at 30° C. for 30 min, the reaction was terminated by the addition of 10 μl of 10% TCA and the samples were blotted onto to nitrocellulose filters. These filters were washed extensively in 10% TCA and assayed for radioactivity. Blanks contained no enzyme. […] After incubation at 30 min., the assay tubes Were processed as above.

[1] = system: rat aortic smooth muscle cells; test: Cell proliferation assay, rat aortic smooth muscle cells (MTS); format: cell-based; conditions: concentration required to inhibit cell proliferation by 50%, 48 hr incubation, read-out: IC50 (μg/mL) cells
Protocol: (§1) Early passage rat aortic smooth muscle cells (CV Therapeutics Cell repository) were seeded in 48 well dishes (Falcon, […]) at a density of 20,000 cells/ml of DME containing 5% heat inactivated bovine serum. The cells were incubated in a standard tissue culture incubator for 48 hr. The medium was aspirated and the wells were replenished with 0.2 ml of fresh medium. Compounds of this invention were added at concentrations ranging from 100 to 0.37 μg/ml. After 48 hr incubation, the medium was aspirated and the cultures were treated with 0.2 ml of saline 0.25 μl of phenozine methosulfate solution containing MTS (Cell Titer 96® Aqueous Non-radioactive cell proliferation assay kit, Catalog # G 5430, Promega, 2800 Woods Hollow Road, Madison, Wis. 53711-5399).

[2] = system: PupVSMC rat neonatal aortic smooth muscle cells; test: Cell proliferation assay, PupVSMC; format: cell-based; conditions: Rat neonatal aortic smooth muscle cells, Table 9; the values are: IC50
Protocol: as §1
(§2) Similar assays were performed using the following cell lines; P388—mouse lymphoid neoplasm; L1210—mouse lympheytic leukemia; Caco2 human colon adenocarcinoma; MCF7 human breast adenocarcinoma; PupVSMC rat neonatal aortic smooth muscle cells; Ovcar human ovarian Carcinoma; Pancl human pancreatic adenocarcinoma; and HUVEC human umbilical cord endothelial cells.

[3] = system: Pancl human pancreatic adenocarcinoma; test: Cell proliferation assay, Panc1; format: cell-based; conditions: Panc 1 cells
Protocol: as §1, §2

[4] = system: Ovcar human ovarian Carcinoma; test: Cell proliferation assay, OvCar; format: cell-based; conditions: OvCar cells
Protocol: as §1, §2

[5] = system: P388 mouse lymphoid neoplasm; test: Cell proliferation assay, P388; format: cell-based; conditions: P388 cells
Protocol: as §1, §2

[6] = system: MCF7 human breast adenocarcinoma; test: Cell proliferation assay, MCF7; format: cell-based; conditions: Homo sapiens; MCF7 cells; read-out: IC50 (μg/ml) for Inhibition of Cell Proliferation, MCF7
Protocol: as §1, §2

[7] = system: Caco2 human colon adenocarcinoma; test: Cell proliferation assay, Caco2; format: cell-based; conditions: Homo sapiens, Caco-2; Caco2 cells; read-out: IC50 (μg/ml) for Inhibition of Cell Proliferation, Caco2
Protocol: as §1, §2

[8] = system: L1210 mouse lympheytic leukemia; test: Cell proliferation assay, L1210; format: cell-based; conditions: Mus musculus, L1210; L 120 cells; read-out: IC50 (μg/ml) for Inhibition of Cell Proliferation, L 120
Protocol: as §1, §2

| Structure (SMILES) | IC50 (CDK2) | other results |
| --- | --- | --- |
| CC(C)n1cnc2c(NCc3ccc(Cl)cc3)nc(NCCCN)nc21 | 2.67 µM |  |
| CC(C)n1cnc2c(NCc3ccc(Cl)cc3)nc(NCCCCCN)nc21 | 77.1 µM |  |
| CC(C)n1cnc2c(NCc3ccc(Cl)cc3)nc(N(CCO)CCO)nc21 [listing 1 of 2 here] | 0.296 µM |  |
| CC(C)[C@H](CO)Nc1nc(NCc2ccc(Cl)cc2)c2ncn(C(C)C)c2n1 | 0.472 µM |  |
| CC(C)[C@@H](CO)Nc1nc(NCc2ccc(Cl)cc2)c2ncn(C(C)C)c2n1 | 0.124 µM |  |
| CC(C)n1cnc2c(NCc3ccc(Cl)cc3)nc(NC[C@@H](C)O)nc21 | 1.15 µM |  |
| CC(C)n1cnc2c(NCc3ccc(Cl)cc3)nc(N[C@H](C)CO)nc21 | 0.934 µM |  |
| CC(C)n1cnc2c(NCc3ccc(Cl)cc3)nc(NC[C@@H](N)Cc3ccccc3)nc21 | 2.38 µM |  |
| CC(C)n1cnc2c(NCc3ccc(Cl)cc3)nc(N[C@@H](C)CO)nc21 | 0.694 µM |  |
| CC(C)n1cnc2c(NCc3ccc(Cl)cc3)nc(N[C@@H](Cc3ccccc3)C(N)=O)nc21 | 2.31 µM |  |
| CC(C)n1cnc2c(NCc3ccc(Cl)cc3)nc(NC[C@H](C)O)nc21 | 1.01 µM |  |
| CC(=O)C(C)n1cnc2c(NCc3ccc(F)cc3)nc(N(CCO)CCO)nc21 (stereo not drawn) | 26.4 µM |  |
| CCC(CO)Nc1nc(NCc2ccc(F)cc2)c2ncn(C(C)C)c2n1 (stereo not drawn) |  | IC50 [1]: 2.4 µg/mL (≈ 6.44 µM) |
| CC(C)n1cnc2c(NCc3ccc(F)cc3)nc(NCCN)nc21 |  | IC50 [1]: 1.4 µg/mL (≈ 4.08 µM) |
| CC(N)CNc1nc(NCc2ccc(F)cc2)c2ncn(C(C)C)c2n1 (stereo not drawn) | 1.34 µM |  |
| CC(CO)Nc1nc(NCc2ccc(F)cc2)c2ncn(C(C)C)c2n1 (stereo not drawn) | 0.502 µM |  |
| CC(C)n1cnc2c(NCc3ccc(F)cc3)nc(N(CCO)CCO)nc21 | 0.386 µM | IC50 [1]: 2.2 µg/mL (≈ 5.66 µM) |

| Structure (SMILES) | IC50 (CDK2) | other results |
| --- | --- | --- |
| CC(C)[C@H](CO)Nc1nc(NCc2ccc(F)cc2)c2ncn(C(C)C)c2n1 | 0.155 µM | IC50 [1]: 2.7 µg/mL (≈ 6.99 µM) |
| CC(C)[C@@H](CO)Nc1nc(NCc2ccc(F)cc2)c2ncn(C(C)C)c2n1 | 0.492 µM |  |
| CC(C)n1cnc2c(NCc3ccc(F)cc3)nc(NC[C@H]3CCCO3)nc21 | 1.51 µM |  |
| CC(C)n1cnc2c(NCc3ccc(F)cc3)nc(NC[C@@H](C)O)nc21 | 0.642 µM | IC50 [1]: > 5 µg/mL |
| CC(C)n1cnc2c(NCc3ccc(F)cc3)nc(NC[C@@H]3CCCO3)nc21 | 1.64 µM |  |
| CC(C)n1cnc2c(NCc3ccc(F)cc3)nc(NC[C@H](C)O)nc21 | 0.614 µM |  |
| CC(C)n1cnc2c(NCC3CCCCC3)nc(Cl)nc21 | 3.25 µM |  |
| CC(C)n1cnc2c(NCc3ccc4c(c3)OCO4)nc(N(CCO)CCO)nc21 | 1.93 µM |  |
| CC(C)n1cnc2c(NCc3ccc(Cl)cc3)nc(N(CCO)CCO)nc21 [listing 2 of 2 here] |  | inhibitory activity, Pup VSMC [2]: 0.3 µg/mL |
| COc1ccc(CNc2nc(N3CCOCC3)nc3c2ncn3C(C)C)cc1 |  | IC50 (μg/ml) for Inhibition of Cell Proliferation, Panc 1 [3]: 5.5 µg/mL; IC50 (μg/ml) for Inhibition of Cell Proliferation, OvCar [4]: 4.0 µg/mL; IC50 (μg/ml) for Inhibition of Cell Proliferation, P 388 [5]: >5 µg/mL |
| CC(C)n1cnc2c(NCc3ccc(Cl)cc3)nc(N(CCN)CCO)nc21 [2-[(2-aminoethyl)(6-{[(4-chlorophenyl)methyl]amino}-9-(methylethyl)purin-2-yl)amino]ethan-1-ol] |  | inhibitory activity, Pup VSMC [2]: 0.3 µg/mL |
| CC(C)n1cnc2c(NCc3ccc(-c4ccccc4)cc3)nc(N(CCO)CCO)nc21 [2-diethanolamino-6-(4-phenybenzylamino)-9-isopropyl Purine] |  | IC50 ([3]; Homo sapiens, read-out: IC50 (μg/ml) for Inhibition of Cell Proliferation, Panc 1): 1.3 µg/mL (≈ 2.91 µM); IC50 ([4]; Homo sapiens, read-out: IC50 (μg/ml) for Inhibition of Cell Proliferation, OvCar): 2 µg/mL (≈ 4.48 µM); IC50 [6]: 1 µg/mL (≈ 2.24 µM); IC50 [7]: 3.5 µg/mL (≈ 7.84 µM); IC50 [8]: 1 µg/mL (≈ 2.24 µM) |
| COc1ccc(CNc2nc(Cl)nc3c2ncn3C)cc1 [R1=4-methoxybenzylamino; R2=Me; R3=Cl] | 19.8 µM | IC50 [1]: > 70 µg/mL |
| CC(C)n1cnc2c(Nc3ccccc3)nc(Cl)nc21 [R1=anilino; R2=isopropyl; R3=Cl] | 3.48 µM |  |
| OCCNc1nc(NCc2ccccc2)nc2[nH]cnc12 [R1=ethanolamino; R2=H; R3=Benzylamino] | > 211 µM |  |
| Cn1cnc2c(NCCO)nc(NCCO)nc21 [R1=ethanolamino; R2=Me; R3=Ethanolamino] | > 238 µM | IC50 [1]: > 70 µg/mL |
| CC(N)CNc1nc(NCc2ccc(Cl)cc2)c2ncn(C(C)C)c2n1 (stereo not drawn) [{2-[(2-aminopropyl)amino]-9-(methylethyl)purin-6-yl}[(4-chlorophenyl)methyl]amine] |  | inhibitory activity, Pup VSMC [2]: 0.1 µg/mL |
